# Experimental data published in patent US4345938A, “Herbicidal 2-haloacetanilides” (Monsanto Company, priority 1980, dated 1982).
# Like-named read-outs stand apart in the source and are kept apart here.
# Tests used:
# Format in all cases: in vivo
# Sagittaria trifolia = experiment: Field transplant rice test, applied 9 DAT, ST; settings: 216 h, read-out: Percent Inhibition, ST; for inhibition at 375 g/ha: 0.375 Kg/Ha; for inhibition at 750 g/ha: 0.75 Kg/Ha; for inhibition at 1500 g/ha: 1.5 Kg/Ha; for inhibition at 3000 g/ha: 3.0 Kg/Ha
# Experimental: (§1) The test data in Table III for all compounds was obtained under identical test conditions. The weeds used in the tests herein have the following abbreviations in the tables: Echinochloa crus-galli (EC), Monochloria vaginalis (MV), Cyperus Serotinus (CS), Eleocharis Kuroguwai (EK) and Sagittaria trifolia (ST).
# (§2) In further comparative tests, a preferred compound of this invention (Example 1) was tested in the field with prior art Compounds A-D. These tests were conducted under conditions reflecting herbicide application times generally favorable to all herbicides in the test. The timing of application of herbicides to transplant rice is very important, whether, as in some instances, prior to transplanting the rice; in other instances, at the time of transplanting or else after transplanting. Application times are conventionally referred to as "days before transplant" (DBT) or "days after transplant" ("DAT"). The field test data in Table IV was obtained from a test in which the herbicides were applied at the time of transplant, i.e., "0 DAT", with observations being made weekly up to six weeks after transplant ("WAT") beginning at two weeks after transplant; for illustrative and representative purposes, only the early, middle and late period observations, i.e., 2 WAT, 4 WAT and 6 WAT, are shown in Table IV. The data in Table IV is for rates of application common to all herbicides in the test, i.e., from 3.0 kg/ha (2.67 lb/A) down to 0.375 kg/ha (0.34 lb/A). All herbicides were applied at their actual or expected use rates, i.e., as granules containing 2.5% by weight herbicide for the compound of Example 1, Compounds B, C and D and 5.0% by weight for Compound A.
# (§3) In Table V are presented field data showing the relative performance of the compound of Example 1 and Compounds A-D applied 9 DAT, with observations being made weekly from 3 WAT to 7 WAT; again, for illustrative and representative purposes, only the early, middle and late period observations are reported in Table V, the herbicide rates and concentrations of active ingredients the same as is shown in Table IV.
# Monochoria vaginalis = experiment: Field transplant rice test, applied 9 DAT, MV; settings: for inhibition at 375 g/ha / inhibition at 750 g/ha / inhibition at 1500 g/ha / inhibition at 3000 g/ha: Pontederia vaginalis, 216 h, read-out: Percent Inhibition, MV; for inhibition at 375 g/ha: 0.375 Kg/Ha; for inhibition at 750 g/ha: 0.75 Kg/Ha; for inhibition at 1500 g/ha: 1.5 Kg/Ha; for inhibition at 3000 g/ha: 3.0 Kg/Ha; for selectivity factor (GR15/GR85), MV in transplant rice: between 3 WAT and 7 WAT
# Description: (§4) In the discussion of data below, occasional reference is made to herbicide application rates symbolized as "GR15 " and "GR85 "; these rates are given in kilograms per hectare (kg/ha) which are convertible into pounds per acre (lbs/A) by dividing the kg/ha rate by 1.12.
# (§5) A further guide to the effectiveness of a chemical as a selective herbicide is the "selectivity factor" ("SF") for a herbicide in given crops and weeds. The selectivity factor is a measure of the relative degree of crop safety and weed injury and is expressed in terms of the GR15 /GR85 ratio, i.e., the GR15 rate for the crop divided by the GR85 rate for the weed, both rates in kg/ha (lb/A.)
# as §1, §2, §3
# Echinochloa crus-galli = experiment: Field transplant rice test, applied 9 DAT, EC; settings: for inhibition at 375 g/ha / inhibition at 750 g/ha / inhibition at 1500 g/ha / inhibition at 3000 g/ha: Echinochloa crus-galli, 216 h, read-out: Percent Inhibition, EC; for inhibition at 375 g/ha: 0.375 Kg/Ha; for inhibition at 750 g/ha: 0.75 Kg/Ha; for inhibition at 1500 g/ha: 1.5 Kg/Ha; for inhibition at 3000 g/ha: 3.0 Kg/Ha; for selectivity factor (GR15/GR85), EC in transplant rice: between 3 WAT and 7 WAT
# Description: as §4, §5, §1, §2, §3
# Rice = experiment: Field transplant rice test, applied 9 DAT, rice injury; settings: Oryza sativa, 216 h, read-out: Percent Inhibition, Rice; for inhibition at 375 g/ha: 0.375 Kg/Ha; for inhibition at 750 g/ha: 0.75 Kg/Ha; for inhibition at 1500 g/ha: 1.5 Kg/Ha; for inhibition at 3000 g/ha: 3.0 Kg/Ha
# Experimental: as §2, §3
structure (smiles),measurement,setting,value
"CCCCOCCN(C(=O)CCl)c1c(CC)cccc1CC [Compound B, 2',6'-diethyl-N-(n-butoxyethyl)-2-chloroacetanilide]",inhibition at 375 g/ha,Sagittaria trifolia; 3 WAT,5%
same,inhibition at 375 g/ha,Sagittaria trifolia; 5 WAT,2%
same,inhibition at 375 g/ha,Sagittaria trifolia; 7 WAT,5%
same,inhibition at 750 g/ha,Sagittaria trifolia; 3 WAT,38%
same,inhibition at 750 g/ha,Sagittaria trifolia; 5 WAT,12%
same,inhibition at 750 g/ha,Sagittaria trifolia; 7 WAT,10%
same,inhibition at 1500 g/ha,Sagittaria trifolia; 3 WAT,40%
same,inhibition at 1500 g/ha,Sagittaria trifolia; 5 WAT,25%
same,inhibition at 1500 g/ha,Sagittaria trifolia; 7 WAT,13%
same,inhibition at 3000 g/ha,Sagittaria trifolia; 3 WAT,42%
same,inhibition at 3000 g/ha,Sagittaria trifolia; 5 WAT,25%
same,inhibition at 3000 g/ha,Sagittaria trifolia; 7 WAT,12%
same,inhibition at 375 g/ha,Monochoria vaginalis; 3 WAT,100%
same,inhibition at 375 g/ha,Monochoria vaginalis; 5 WAT,95%
same,inhibition at 375 g/ha,Monochoria vaginalis; 7 WAT,77%
same,inhibition at 750 g/ha,Monochoria vaginalis; 3 WAT,97%
same,inhibition at 750 g/ha,Monochoria vaginalis; 5 WAT,98%
same,inhibition at 750 g/ha,Monochoria vaginalis; 7 WAT,88%
same,inhibition at 1500 g/ha,Monochoria vaginalis; 3 WAT,98%
same,inhibition at 1500 g/ha,Monochoria vaginalis; 5 WAT,100%
same,inhibition at 1500 g/ha,Monochoria vaginalis; 7 WAT,100%
same,inhibition at 3000 g/ha,Monochoria vaginalis; 3 WAT,100%
same,inhibition at 3000 g/ha,Monochoria vaginalis; 5 WAT,100%
same,inhibition at 3000 g/ha,Monochoria vaginalis; 7 WAT,97%
same,"selectivity factor (GR15/GR85), MV in transplant rice",Monochoria vaginalis,8
same,inhibition at 375 g/ha,Echinochloa crus-galli; 3 WAT,57%
same,inhibition at 375 g/ha,Echinochloa crus-galli; 5 WAT,55%
same,inhibition at 375 g/ha,Echinochloa crus-galli; 7 WAT,47%
same,inhibition at 750 g/ha,Echinochloa crus-galli; 3 WAT,68%
same,inhibition at 750 g/ha,Echinochloa crus-galli; 5 WAT,53%
same,inhibition at 750 g/ha,Echinochloa crus-galli; 7 WAT,50%
same,inhibition at 1500 g/ha,Echinochloa crus-galli; 3 WAT,90%
same,inhibition at 1500 g/ha,Echinochloa crus-galli; 5 WAT,80%
same,inhibition at 1500 g/ha,Echinochloa crus-galli; 7 WAT,85%
same,inhibition at 3000 g/ha,Echinochloa crus-galli; 3 WAT,95%
same,inhibition at 3000 g/ha,Echinochloa crus-galli; 5 WAT,95%
same,inhibition at 3000 g/ha,Echinochloa crus-galli; 7 WAT,92%
same,"selectivity factor (GR15/GR85), EC in transplant rice",Echinochloa crus-galli,2
same,inhibition at 375 g/ha,Rice; 3 WAT,12%
same,inhibition at 375 g/ha,Rice; 5 WAT,0%
same,inhibition at 375 g/ha,Rice; 7 WAT,5%
same,inhibition at 750 g/ha,Rice; 3 WAT,12%
same,inhibition at 750 g/ha,Rice; 5 WAT,5%
same,inhibition at 750 g/ha,Rice; 7 WAT,3%
same,inhibition at 1500 g/ha,Rice; 3 WAT,10%
same,inhibition at 1500 g/ha,Rice; 5 WAT,2%
same,inhibition at 1500 g/ha,Rice; 7 WAT,5%
same,inhibition at 3000 g/ha,Rice; 3 WAT,12%
same,inhibition at 3000 g/ha,Rice; 5 WAT,5%
same,inhibition at 3000 g/ha,Rice; 7 WAT,2%
"CCCCOCN(C(=O)CCl)c1c(C)cccc1C(C)(C)C [Compound C, 2'-methyl-6'-tert-butyl-N-(n-butoxymethyl)-2-chloroacetanilide]",inhibition at 375 g/ha,Sagittaria trifolia; 3 WAT,47%
same,inhibition at 375 g/ha,Sagittaria trifolia; 5 WAT,10%
same,inhibition at 375 g/ha,Sagittaria trifolia; 7 WAT,2%
same,inhibition at 750 g/ha,Sagittaria trifolia; 3 WAT,32%
same,inhibition at 750 g/ha,Sagittaria trifolia; 5 WAT,8%
same,inhibition at 750 g/ha,Sagittaria trifolia; 7 WAT,0%
same,inhibition at 1500 g/ha,Sagittaria trifolia; 3 WAT,48%
same,inhibition at 1500 g/ha,Sagittaria trifolia; 5 WAT,17%
same,inhibition at 1500 g/ha,Sagittaria trifolia; 7 WAT,7%
same,inhibition at 3000 g/ha,Sagittaria trifolia; 3 WAT,30%
same,inhibition at 3000 g/ha,Sagittaria trifolia; 5 WAT,13%
same,inhibition at 3000 g/ha,Sagittaria trifolia; 7 WAT,3%
same,inhibition at 375 g/ha,Monochoria vaginalis; 3 WAT,97%
same,inhibition at 375 g/ha,Monochoria vaginalis; 5 WAT,98%
same,inhibition at 375 g/ha,Monochoria vaginalis; 7 WAT,60%
same,inhibition at 750 g/ha,Monochoria vaginalis; 3 WAT,100%
same,inhibition at 750 g/ha,Monochoria vaginalis; 5 WAT,100%
same,inhibition at 750 g/ha,Monochoria vaginalis; 7 WAT,100%
same,inhibition at 1500 g/ha,Monochoria vaginalis; 3 WAT,100%
same,inhibition at 1500 g/ha,Monochoria vaginalis; 5 WAT,100%
same,inhibition at 1500 g/ha,Monochoria vaginalis; 7 WAT,100%
same,inhibition at 3000 g/ha,Monochoria vaginalis; 3 WAT,100%
same,inhibition at 3000 g/ha,Monochoria vaginalis; 5 WAT,100%
same,inhibition at 3000 g/ha,Monochoria vaginalis; 7 WAT,100%
same,"selectivity factor (GR15/GR85), MV in transplant rice",Monochoria vaginalis,8
same,inhibition at 375 g/ha,Echinochloa crus-galli; 3 WAT,82%
same,inhibition at 375 g/ha,Echinochloa crus-galli; 5 WAT,78%
same,inhibition at 375 g/ha,Echinochloa crus-galli; 7 WAT,82%
same,inhibition at 750 g/ha,Echinochloa crus-galli; 3 WAT,92%
same,inhibition at 750 g/ha,Echinochloa crus-galli; 5 WAT,95%
same,inhibition at 750 g/ha,Echinochloa crus-galli; 7 WAT,97%
same,inhibition at 1500 g/ha,Echinochloa crus-galli; 3 WAT,98%
same,inhibition at 1500 g/ha,Echinochloa crus-galli; 5 WAT,100%
same,inhibition at 1500 g/ha,Echinochloa crus-galli; 7 WAT,100%
same,inhibition at 3000 g/ha,Echinochloa crus-galli; 3 WAT,98%
same,inhibition at 3000 g/ha,Echinochloa crus-galli; 5 WAT,100%
same,inhibition at 3000 g/ha,Echinochloa crus-galli; 7 WAT,100%
same,"selectivity factor (GR15/GR85), EC in transplant rice",Echinochloa crus-galli,4
same,inhibition at 375 g/ha,Rice; 3 WAT,17%
same,inhibition at 375 g/ha,Rice; 5 WAT,8%
same,inhibition at 375 g/ha,Rice; 7 WAT,10%
same,inhibition at 750 g/ha,Rice; 3 WAT,10%
same,inhibition at 750 g/ha,Rice; 5 WAT,7%
same,inhibition at 750 g/ha,Rice; 7 WAT,8%
same,inhibition at 1500 g/ha,Rice; 3 WAT,18%
same,inhibition at 1500 g/ha,Rice; 5 WAT,15%
same,inhibition at 1500 g/ha,Rice; 7 WAT,13%
same,inhibition at 3000 g/ha,Rice; 3 WAT,10%
same,inhibition at 3000 g/ha,Rice; 5 WAT,5%
same,inhibition at 3000 g/ha,Rice; 7 WAT,8%
